Read-outs that look alike come from different tables or passages of the source.
Legend:
[1] = tested on: T1, AMO-CFZ clone #7 (depleted ABCB1); test: cells; design: species or system AMO-CFZ clones 1 and 7; Cytotoxicity dose-response of myeloma drugs on AMO-CFZ clones with or without ABCB1, IC50; conditions: ABCB1 depleted clone #7
T1 construct: AMO-1 derived, carfilzomib-adapted, clone 7 ABCB1 depleted by CRISPR/Cas9 (subtotal elimination)
Text: (§1) To dissect the role of ABCB1 overexpression for the activity of standard myeloma drugs we compared the cytotoxic effects of such drugs on AMO-CFZ cells with (clone #1) or without such ABCB1 expression (clone 7) (Figure 3c and Supplementary Table S4). To score for good versus poor ABCB1-substrate myeloma drugs, we calculated the ratio of IC50 values between the ABCB1-containing and the ABCB1-deficient clone for each of the myeloma drug. […] (a) Western blot evaluation of the ABCB1 depletion in AMO-CFZ clones obtained by CRISPR/Cas9 genome editing tool. (b) Dose–response of AMO-CFZ clones with depleted ABCB1 to CFZ. Corresponding IC50 values are presented in Supplementary Table S3. (c) Dose–response of selected AMO-CFZ clones 1 and 7 to CFZ and convectional drugs used in the treatment of MM. (d) Dose–response of AMO-CFZ clones 1 and 7 to approved PI or those in clinical development. Corresponding IC50 values are presented in Supplementary Table S4. To directly address the functional role of ABCB1 for CFZ resistance, we eliminated ABCB1 protein in AMO-CFZ cells by CRISPR/Cas9 (for example, clone 7) (Figure 3a). We observed an inverse correlation between the levels of ABCB1 and myeloma cell sensitivity to CFZ (Figure 3b, Supplementary Table S3). […] Overexpressed ABCB1 is therefore a therapeutic target for CFZ-resistant myeloma.

[2] = tested on: T2, AMO-CFZ clone #1 (upregulated ABCB1); test: cells; design: species or system AMO-CFZ clones 1 and 7; Cytotoxicity dose-response of myeloma drugs on AMO-CFZ clones with or without ABCB1, IC50; conditions: ABCB1 upregulated clone #1
T2 construct: AMO-1 derived, carfilzomib-adapted, clone 1 CRISPR/Cas9 clone retaining ABCB1 overexpression
Text: as §1

ABCB1 = ABCB1 (Homo sapiens, UniProt P08183); test: MitoTracker Green FM and MVB003 efflux (flow cytometry) in ABCB1-overexpressing AMO-CFZ cells
AMO-CFZ = tested on: T3, AMO-CFZ; test: cells; design: species or system AMO-1, AMO-BTZ, AMO-CFZ and AMO-CFZ clones #1 and #7; cell viability, MTS tetrazolium (CellTiter 96 AQueous One Solution), continuous treatment; conditions: Homo sapiens, AMO1, 48 h
T3 construct: AMO-1 derived, carfilzomib-adapted, ABCB1 overexpressing
Description: (§2) Generation of AMO-CFZ Ub-G67V-GFP cells AMO-CFZ cells were electroporated with a plasmid containing Ub-G76V-GFP [1] (obtained from Nico Dantuma; Addgene plasmid #11941) and subsequently cultured in the presence of selecting antibiotic G418 (500ng/ml, Gibco/Invitrogen, MA, USA). Subclones were obtained using MethoCult (StemCell Technologies, USA) and the clone with highest accumulation of fluorescence after BTZ treatment was chosen for further analysis. Assessment of cell viability Viability of cell lines was determined after 48h of treatment by MTS tetrazolium compound using CellTiter 96® AQueous One Solution) (Promega, WI, USA) according to manufactures protocol. PgP-Glo assay PgP-Glo assay (Promega, WI, USA) was performed according to manufacturer recommendations.  Figure 2 Comparison of dose–response of AMO-1 (sensitive) vs AMO-BTZ and AMO-CFZ (resistant) cells treated with PIs (BTZ and CFZ). (a) Residual activity of proteasome subunits visualized by activity-based probe labeling in intact cells after 1 h pulse treatment with indicated PIs. (b) Cell viability was measured after 48 hours of continuous treatment. Corresponding IC50 values are presented in Supplementary Table S2.  Figure 7 Sensitivity profile of ABCB1 inhibitors co-treatment with PIs used in the clinic or in clinical development in AMO-1, AMO-BTZ and AMO-CFZ cell lines. Dose–response curves of PI co-treated with NFV (10 μM) and LPV (10 μM). Corresponding IC50 values are presented in Supplementary Table S7.

[3] = tested on: T2, AMO-CFZ clone #1 (upregulated ABCB1); test: cells; design: species or system AMO-1, AMO-BTZ, AMO-CFZ and AMO-CFZ clones #1 and #7; cell viability, MTS tetrazolium (CellTiter 96 AQueous One Solution), continuous treatment; conditions: Homo sapiens, AMO1, 48 h; CFZ alone
Description: as §2

AMO-1 = test: cells; design: species or system AMO-BTZ, AMO-CFZ and AMO-CFZ clones #1 and #7; cell viability, MTS tetrazolium (CellTiter 96 AQueous One Solution), continuous treatment; conditions: Homo sapiens, AMO1, 48 h
Description: as §2, with “recommendations.” for “recommendations. ”, “S2.” for “S2. ”, “Dose–response curves of PI co-treated with NFV (10 μM) and LPV (10 μM). Corresponding IC50 values are presented in Supplementary Table S7.” left out

AMO-BTZ = tested on: T4, AMO-BTZ; test: cells; design: species or system AMO-1, AMO-CFZ and AMO-CFZ clones #1 and #7; cell viability, MTS tetrazolium (CellTiter 96 AQueous One Solution), continuous treatment; conditions: Homo sapiens, AMO1, 48 h
T4 construct: AMO-1 derived, bortezomib-adapted
Description: as §2, with “recommendations.” for “recommendations. ”, “S2.” for “S2. ”, “Dose–response curves of PI co-treated with NFV (10 μM) and LPV (10 μM). Corresponding IC50 values are presented in Supplementary Table S7.” left out

[4] = tested on: T2, AMO-CFZ clone #1 (upregulated ABCB1); test: cells; design: species or system AMO-1, AMO-BTZ, AMO-CFZ and AMO-CFZ clones #1 and #7; cell viability, MTS tetrazolium (CellTiter 96 AQueous One Solution), continuous treatment; conditions: Homo sapiens, AMO1, 48 h; CFZ alone; remark: listed apart in the source
Description: as §2, with “recommendations.” for “recommendations. ”, “S2.” for “S2. ”, “Dose–response curves of PI co-treated with NFV (10 μM) and LPV (10 μM). Corresponding IC50 values are presented in Supplementary Table S7.” left out

ABCB1, sequence (P08183 whole entry): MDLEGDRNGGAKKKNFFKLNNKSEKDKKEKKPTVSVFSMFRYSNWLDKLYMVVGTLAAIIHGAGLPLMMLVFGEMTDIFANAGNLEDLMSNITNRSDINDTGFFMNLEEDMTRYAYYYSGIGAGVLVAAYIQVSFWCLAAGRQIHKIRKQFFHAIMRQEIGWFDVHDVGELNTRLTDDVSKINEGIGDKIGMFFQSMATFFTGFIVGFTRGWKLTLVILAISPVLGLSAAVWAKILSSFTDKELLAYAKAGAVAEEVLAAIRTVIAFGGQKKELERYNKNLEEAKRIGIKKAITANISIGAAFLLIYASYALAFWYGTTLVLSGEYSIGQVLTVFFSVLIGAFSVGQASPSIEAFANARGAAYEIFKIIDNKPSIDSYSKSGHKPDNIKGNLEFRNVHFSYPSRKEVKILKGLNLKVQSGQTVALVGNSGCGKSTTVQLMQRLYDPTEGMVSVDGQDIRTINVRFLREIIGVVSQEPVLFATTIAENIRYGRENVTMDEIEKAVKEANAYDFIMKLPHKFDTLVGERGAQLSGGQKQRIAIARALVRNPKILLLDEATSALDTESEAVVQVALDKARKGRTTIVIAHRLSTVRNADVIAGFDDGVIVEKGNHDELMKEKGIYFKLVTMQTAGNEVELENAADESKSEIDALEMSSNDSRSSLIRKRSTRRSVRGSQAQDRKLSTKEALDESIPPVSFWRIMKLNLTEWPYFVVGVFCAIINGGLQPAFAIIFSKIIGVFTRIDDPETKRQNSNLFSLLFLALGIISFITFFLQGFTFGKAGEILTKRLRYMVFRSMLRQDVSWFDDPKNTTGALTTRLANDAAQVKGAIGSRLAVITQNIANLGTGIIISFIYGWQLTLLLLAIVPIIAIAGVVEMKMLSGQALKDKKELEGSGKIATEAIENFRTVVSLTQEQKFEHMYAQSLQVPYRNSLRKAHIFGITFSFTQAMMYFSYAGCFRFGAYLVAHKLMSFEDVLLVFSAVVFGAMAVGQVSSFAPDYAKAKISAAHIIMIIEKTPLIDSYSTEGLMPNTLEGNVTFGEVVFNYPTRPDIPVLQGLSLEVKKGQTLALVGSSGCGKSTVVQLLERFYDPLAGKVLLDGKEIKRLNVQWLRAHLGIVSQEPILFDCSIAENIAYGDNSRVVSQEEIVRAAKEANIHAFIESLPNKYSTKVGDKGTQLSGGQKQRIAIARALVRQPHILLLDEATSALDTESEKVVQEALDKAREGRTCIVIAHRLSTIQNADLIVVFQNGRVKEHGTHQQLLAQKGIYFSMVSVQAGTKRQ

SMILES | IC50 [1] [nM] | IC50 [2] [nM] | IC50 (AMO-CFZ; PI alone) [nM] | other results
C[C@@]12OC(=O)[C@]1([C@@H](O)[C@@H]1C=CCCC1)NC(=O)[C@@H]2CCCl [Marizomib] | 32.9 | 61.4 |  | 
COC(=O)[C@H]1[C@H]2C[C@@H]3c4[nH]c5cc(OC)ccc5c4CCN3C[C@H]2C[C@@H](OC(=O)c2cc(OC)c(OC)c(OC)c2)[C@@H]1OC [RSP, reserpine] |  |  |  | MitoTracker Green FM and MVB003 efflux (flow cytometry) in ABCB1-overexpressing (ABCB1): Addition of VPM or reserpine (RSP) in the micromolar range led to a sizable, dose-dependent increase in cellular fluorescence
COC[C@H](NC(=O)c1cnc(C)s1)C(=O)N[C@@H](COC)C(=O)N[C@@H](Cc1ccccc1)C(=O)[C@@]1(C)CO1 [Oprozomib] | 221 | 1470 | 1320 | 
CC(C)C[C@H](NC(=O)CNC(=O)c1cc(Cl)ccc1Cl)B(O)O [Ixazomib] | 345 | 692 | 1280 | 
CC(C)C[C@H](NC(=O)[C@H](CCc1ccccc1)NC(=O)CN1CCOCC1)C(=O)N[C@@H](Cc1ccccc1)C(=O)N[C@@H](CC(C)C)C(=O)[C@@]1(C)CO1 [CFZ, carfilzomib] | 78.5 | 613 |  | IC50 [3]: 824 nM; IC50 (AMO-CFZ; read-out: CFZ): 892 nM; IC50 (AMO-1; read-out: CFZ): 4.8 nM; IC50 (AMO-BTZ; read-out: CFZ): 67.2 nM; IC50 [4]: 796 nM
CC(C)C[C@H](NC(=O)[C@@H](NC(=O)c1cccc(-c2ccccc2)n1)[C@@H](C)O)B(O)O [Delanzomib] | 80.5 | 294 | 1040 | 
Cc1[nH]c2ccccc2c1CCNCc1ccc(/C=C/C(=O)NO)cc1 [Panobinostat] | 49.5 | 220 |  | 
CC(C)C[C@H](NC(=O)[C@H](Cc1ccccc1)NC(=O)c1cnccn1)B(O)O [BTZ, bortezomib] | 26.8 | 69.3 | 156 | IC50 (AMO-CFZ; read-out: BTZ): 89.3 nM; IC50 (AMO-1; read-out: BTZ): 6.3 nM; IC50 (AMO-BTZ; read-out: BTZ): 1340 nM
